Emax and EC50 data for 24 molecules are collected here from patent publication US20250101041A1, “POSITIVE ALLOSTERIC MODULATORS OF THE MUSCARINIC ACETYLCHOLINE RECEPTOR M4” (Vanderbilt University, priority 2022, published 2025).

The target of the assay is T1, human mAChR M4 (Homo sapiens, UniProt P08173).
T1 construct: expressed in transfected cells; host or cells: CHO-K1 (American Type Culture Collection), stably expressing hM4 and Gqi5
T1 sequence (P08173 1-479): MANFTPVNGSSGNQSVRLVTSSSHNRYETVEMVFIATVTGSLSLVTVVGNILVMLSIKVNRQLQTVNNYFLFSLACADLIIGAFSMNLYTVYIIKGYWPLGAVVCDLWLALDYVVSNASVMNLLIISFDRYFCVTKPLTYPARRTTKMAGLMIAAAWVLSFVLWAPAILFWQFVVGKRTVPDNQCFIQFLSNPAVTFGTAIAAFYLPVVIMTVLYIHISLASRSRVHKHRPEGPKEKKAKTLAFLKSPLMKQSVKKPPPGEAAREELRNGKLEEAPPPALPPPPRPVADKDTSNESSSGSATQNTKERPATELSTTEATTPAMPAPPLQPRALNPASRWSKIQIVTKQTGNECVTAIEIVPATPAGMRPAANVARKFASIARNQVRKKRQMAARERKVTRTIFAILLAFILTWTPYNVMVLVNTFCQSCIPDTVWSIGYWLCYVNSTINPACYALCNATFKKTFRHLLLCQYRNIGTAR
The assay can be described thus: mAChR M4 cell-based functional assay: calcium mobilization (Fluo-4, FDSS), potentiation of EC20 acetylcholine response in hM4-Gqi5 CHO-K1 cells. Particulars: human M4; for Emax at 30 µM: CHO-K1, % ACh maximum at 30 μM; for EC50: potentiation of EC20 acetylcholine response, calcium mobilization. A digest of the protocol:
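Readout is the fluorescence-ratio rise at 1 Hz on FDSS, with PAM activity taken as concentration-dependent enhancement of the EC20 acetylcholine response, fitted four-parameter for EC50/Emax. hM4-Gqi5 CHO-K1 cells carried Fluo-4 AM dye; test compounds (11 points, 1:3) preceded EC20 acetylcholine additions at 144 s and 230 s.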

Broadly, the Emax is the greatest response seen or fitted, relative to the assay's reference. As a reminder, the EC50 is the concentration giving half of the maximal effect. On to `CCn1cc(-c2cnc3c(c2)CN(c2nn4c(=O)cc(C)nc4cc2C)CC3)cn1` [Compound 1-219, 7-(3-(1-ethyl-1H-pyrazol-4-yl)-7,8-dihydro-1,6-naphthyridin-6(5H)-yl)-2,8-dimethyl-4H-pyrimido[1,2-b]pyridazin-4-one], for which the Emax at 30 µM amounted to 80% and the EC50 worked out at 341 nM.
The like results for `Cc1cc(=O)n2nc(N3CCc4ncc(-c5ccc(C)o5)cc4C3)c(C)cc2n1` [Compound 1-302, 2,8-dimethyl-7-(3-(5-methylfuran-2-yl)-7,8-dihydro-1,6-naphthyridin-6(5H)-yl)-4H-pyrimido[1,2-b] pyridazin-4-one] were, in that order, 85% and 188 nM.
As to `COc1cncc(-c2cnc3c(c2)CN(c2nn4c(=O)cc(C(F)(F)F)nc4cc2C)CC3)c1` [Compound 1-74, 7-(3-(5-methoxypyridin-3-yl)-7,8-dihydro-1,6-naphthyridin-6(5H)-yl)-8-methyl-2-(trifluoromethyl)-4H-pyrimido[1,2-b]pyridazin-4-one], the Emax at 30 µM is 102% and the EC50 came to 445 nM.
Turning to `Cc1c(N2CCc3ncc(OCCN4CCOC4=O)cc3C2)nn2c(=O)ccnc2c1C` [Compound 3-4, 3-(2-((6-(8,9-Dimethyl-4-oxo-4H-pyrimido[1,2-b]pyridazin-7-yl)-5,6,7,8-tetrahydro-1,6-naphthyridin-3-yl)oxy)ethyl)oxazolidin-2-one], the Emax at 30 µM was 54% and the EC50 is 1060 nM.
For `Cc1cc(=O)n2nc(N3CCc4ncc(-c5ccccc5Cl)cc4C3)c(C)c(C)c2n1` [Compound 1-278, 7-(3-(2-chlorophenyl)-7,8-dihydro-1,6-naphthyridin-6(5H)-yl)-2,8,9-trimethyl-4H-pyrimido[1,2-b]pyridazin-4-one], the Emax at 30 µM came to 81%.
`Cc1c(N2CCc3ncc(-c4cnn(CCN5CCOCC5)c4)cc3C2)nn2c(=O)cc(C(F)F)nc2c1C` [Compound 1-173, 2-(difluoromethyl)-8,9-dimethyl-7-(3-(1-(2-morpholinoethyl)-1H-pyrazol-4-yl)-7,8-dihydro-1,6-naphthyridin-6(5H)-yl)-4H-pyrimido[1,2-b]pyridazin-4-one]: the Emax at 30 µM was determined as 81% and the EC50 is 338 nM.
As for `COc1cncc(-c2cnc3c(c2)CN(c2nn4c(=O)cc(C)nc4cc2C)CC3)c1` [Compound 1-70, 7-(3-(5-methoxypyridin-3-yl)-7,8-dihydro-1,6-naphthyridin-6(5H)-yl)-2,8-dimethyl-4H-pyrimido[1,2-b]pyridazin-4-one], the Emax at 30 µM stood at 92% and the EC50 stood at 274 nM.
For `CCc1ccccc1-c1cnc2c(c1)CN(c1nn3c(=O)cc(C)nc3cc1C)CC2` [Compound 1-232, 7-(3-(2-ethylphenyl)-7,8-dihydro-1,6-naphthyridin-6(5H)-yl)-2,8-dimethyl-4H-pyrimido[1,2-b]pyridazin-4-one] the same measures were 57% and 441 nM.
For `Cc1cc2nccc(=O)n2nc1N1CCc2ncc(-c3cn(C)nc3C(F)(F)F)cc2C1` [Compound 1-411, 8-methyl-7-(3-(1-methyl-3-(trifluoromethyl)-1H-pyrazol-4-yl)-7,8-dihydro-1,6-naphthyridin-6(5H)-yl)-4H-pyrimido[1,2-b]pyridazin-4-one] the same measures were 82% and 1240 nM.
The like results for `Cc1cc2nccc(=O)n2nc1N1CCc2ncc(Nc3ccc(C(C)C)nc3)cc2C1` [Compound 2-101, 7-(3-((6-isopropylpyridin-3-yl)amino)-7,8-dihydro-1,6-naphthyridin-6(5H)-yl)-8-methyl-4H-pyrimido[1,2-b]pyridazin-4-one] were, in that order, 65% and 527 nM.
With `COc1cc(C)c(-c2cnc3c(c2)CN(c2nn4c(=O)cc(C)nc4c(C)c2C)CC3)cn1` [Compound 1-198, 7-(3-(6-methoxy-4-methylpyridin-3-yl)-7,8-dihydro-1,6-naphthyridin-6(5H)-yl)-2,8,9-trimethyl-4H-pyrimido[1,2-b]pyridazin-4-one], the Emax at 30 µM amounted to 83% and the EC50 was determined as 1920 nM.
Consider `Cc1cc(=O)n2nc(N3CCc4ncc(-c5cnc(Cl)cc5C)cc4C3)c(C)c(C)c2n1` [Compound 1-197, 7-(3-(6-chloro-4-methylpyridin-3-yl)-7,8-dihydro-1,6-naphthyridin-6(5H)-yl)-2,8,9-trimethyl-4H-pyrimido[1,2-b]pyridazin-4-one], for which the Emax at 30 µM worked out at 81% and the EC50 came to 275 nM.
The like results for `Cc1ccncc1-c1cnc2c(c1)CN(c1nn3c(=O)cc(C(F)F)nc3c(C)c1C)CC2` [Compound 1-161, 2-(difluoromethyl)-8,9-dimethyl-7-(3-(4-methylpyridin-3-yl)-7,8-dihydro-1,6-naphthyridin-6(5H)-yl)-4H-pyrimido[1,2-b]pyridazin-4-one] were, in that order, 76% and 92 nM.
On to `Cc1cc(=O)n2nc(N3CCc4ncc(-c5ccncc5)cc4C3)c(C)c(C)c2n1` [Compound 1-244, 2,8,9-trimethyl-7-(3-(pyridin-4-yl)-7,8-dihydro-1,6-naphthyridin-6(5H)-yl)-4H-pyrimido[1,2-b]pyridazin-4-one], for which the Emax at 30 µM is 82% and the EC50 came out at 112 nM.
The like results for `Cc1cc2nccc(=O)n2nc1N1CCc2ncc(N3CCCc4cc(F)ccc43)cc2C1` [Compound 2-103, 7-(3-(6-fluoro-3,4-dihydroquinolin-1(2H)-yl)-7,8-dihydro-1,6-naphthyridin-6(5H)-yl)-8-methyl-4H-pyrimido[1,2-b]pyridazin-4-one] were, in that order, 89% and 33 nM.
On to `COc1ccsc1-c1cnc2c(c1)CN(c1nn3c(=O)cc(C(F)F)nc3c(C)c1C)CC2` [Compound 1-311, 2-(difluoromethyl)-7-(3-(3-methoxythiophen-2-yl)-7,8-dihydro-1,6-naphthyridin-6(5H)-yl)-8,9-dimethyl-4H-pyrimido[1,2-b]pyridazin-4-one], for which the Emax at 30 µM came out at 79% and the EC50 was 1270 nM.
As to `Cc1cncc(-c2cnc3c(c2)CN(c2nn4c(=O)ccnc4cc2C)CC3)c1` [Compound 1-65, 8-methyl-7-(3-(5-methylpyridin-3-yl)-7,8-dihydro-1,6-naphthyridin-6(5H)-yl)-4H-pyrimido[1,2-b]pyridazin-4-one], the Emax at 30 µM stood at 70% and the EC50 came out at 656 nM.
Turning to `Cc1cncc(Nc2cnc3c(c2)CN(c2nn4c(=O)ccnc4cc2C)CC3)c1` [Compound 2-133, 8-methyl-7-(3-((5-methylpyridin-3-yl)amino)-7,8-dihydro-1,6-naphthyridin-6(5H)-yl)-4H-pyrimido[1,2-b]pyridazin-4-one], the Emax at 30 µM was determined as 96% and the EC50 worked out at 184 nM.
As for `Cc1cc(=O)n2nc(N3CCc4ncc(-c5ccc6nccn6c5)cc4C3)c(C)cc2n1` [Compound 1-220, 7-(3-(imidazo[1,2-a]pyridin-6-yl)-7,8-dihydro-1,6-naphthyridin-6(5H)-yl)-2,8-dimethyl-4H-pyrimido[1,2-b]pyridazin-4-one], the Emax at 30 µM was 70% and the concentration giving a half-maximal response (EC50) was found to be 747 nM.
For `[2H]C1([2H])Cc2ncc(Nc3cccnc3C)cc2C([2H])([2H])N1c1nn2c(=O)ccnc2cc1C` [Compound 2-163, 8-methyl-7-(3-((2-methylpyridin-3-yl)amino)-7,8-dihydro-1,6-naphthyridin-6(5H)-yl-5,5,7,7-d4)-4H-pyrimido[1,2-b]pyridazin-4-one] the same measures were 79% and 388 nM.
In the case of `Cc1cc(=O)n2nc(N3CCc4ncc(-c5cnccn5)cc4C3)c(C)c(C)c2n1` [Compound 1-125, 2,8,9-trimethyl-7-(3-(pyrazin-2-yl)-7,8-dihydro-1,6-naphthyridin-6(5H)-yl)-4H-pyrimido[1,2-b]pyridazin-4-one], the Emax at 30 µM worked out at 97% and the EC50 was 368 nM.
Regarding `Cc1cc(=O)n2nc(N3CCc4ncc(-c5cc(F)nc(F)c5)cc4C3)c(C)cc2n1` [Compound 1-242, 7-(3-(2,6-difluoropyridin-4-yl)-7,8-dihydro-1,6-naphthyridin-6(5H)-yl)-2,8-dimethyl-4H-pyrimido[1,2-b]pyridazin-4-one], the Emax at 30 µM amounted to 79% and the EC50 was 612 nM.
On to `Cc1cc2nccc(=O)n2nc1N1CCc2ncc(N3CCO[C@H](C)C3)cc2C1` [Compound 2-2, (R)-8-methyl-7-(3-(2-methylmorpholino)-7,8-dihydro-1,6-naphthyridin-6(5H)-yl)-4H-pyrimido[1,2-b]pyridazin-4-one], for which the Emax at 30 µM amounted to 87% and the EC50 is 363 nM.
Consider `Cc1c(N2CCc3ncc(-n4cccn4)cc3C2)nn2c(=O)ccnc2c1C` [Compound 2-34, 7-(3-(1H-pyrazol-1-yl)-7,8-dihydro-1,6-naphthyridin-6(5H)-yl)-8,9-dimethyl-4H-pyrimido[1,2-b]pyridazin-4-one], for which the Emax at 30 µM was found to be 77% and the EC50 is 318 nM.
